Assay results published in patent US8663607B2, “Ferrate(VI)-containing compositions and methods of using ferrate(VI)” (Battelle Memorial Institute, priority 2007, dated 2014).

Key:
[1] = at 71° C.; pure (80-100%) or moderate purity (50-80%)
Description: The more demanding isothermal test conditions were chosen for the preliminary viability assessment testing. In this series of tests, a Blue M Electric Oven, Model OV-490A-3 (S/N OV-11311, BMI No. N-00154, 120V Single Phase, 38-260° C.), was used. The oven was set to maintain an air temperature of approximately 71.5° C. A mercury thermometer immersed in silicone oil was added to the oven for manual tracking of the temperature, and a HOBO model H08-002-02 external temperature logger (Onset Computer Corp., S/N 5948-9820) was used for automated temperature data acquisition. Four ˜1.0 g samples of K2FeO4 TG were transferred to clean 12 mL glass vials with Teflon-lined caps; these samples with purity from ˜75-93% were chosen specifically to represent a variety of initial purity values. Before closure, the headspace of each vial briefly was purged (˜20 sec at ˜250 cm^3 (STP)) with ultra-high purity (UHP) argon gas to minimize trapped moisture.
The samples were removed from the oven at 1, 2, 5, 7, 12, 27, 48, and 98 days. The purity of each sample was determined by the technique described in Section 3.2.1. Each vial was assayed three times at each sampling point in order to calculate standard deviation and provide an estimate of precision. When returning the vials to the isothermal oven, the headspace of each vial was purged briefly with UHP argon, as before.

[2] = Stain removal from HAP disk, Cran-Grape juice stain; details: disk A-5: Cran-Grape juice stain treated the same way as P and Q (pH 8 SDS/HEPA buffer)
Excerpt: Oxidation resistant chelating buffer: 0.25M 1-Hydroxyethylidenediphosphonic acid (etridonic acid) (Dequest® 2010, Thermphos) (HEPA) was pH adjusted by microtitration with 10N NaOH. 1.28 g of 1-Hydroxyethylidenediphosphonic acid was to a 25-mL volumetric flask and brought to volume with HPDI water. The solution was transferred to a 50-mL beaker with a stir bar and pH adjusted using 10.04N NaOH, monitored with a calibrated pH meter. Aliquat 336® (Cognis) (also suitable is Aliquat 134®) (N-methyl-tri-(n-octyl)ammonium chloride), (N-methyl TOA) or “HEPA” chelating pH Buffer: 2.5-μL of N-methyl TOA was added to 5 mL of pH 7 HEPA buffer and sonicated for 1 minute. pH 7 Sodium Dodecyl Sulfate (SDS)/HEPA Buffer: 10 mg of SDS was added to 5 mL of pH 7 HEPA buffer and sonicated for 1 minute. pH 8 SDS/HEPA Buffer: 10 mg of SDS was added to 5 mL of pH 8 HEPA buffer and sonicated for 1 minute.
• A. A tea stained disk was placed into the bowl of the bowl of a watch glass and 100 μL of pH 7 HEPA buffer was pipetted onto the disk surface. 3.7 mg of potassium ferrate(VI) was added to the disk surface and mixed gently. […] The disk was rinsed at 10 minutes with HPDI water. […] 1 mL of pH 7 HEPA buffer was added followed by 9 mL of HPDI water. 9.7 mg of potassium ferrate(VI) was added. The tube was gently hand shaken for 10 minutes. The disk was removed and rinsed with HPDI water. […] 10 mg of potassium ferrate(VI) was added to 1 mL of pH 7 HEPA buffer in a 50 mL centrifuge tube. 9 mL HPDI water was added, and the solution was shaken for a few seconds followed by the addition of a tea stained HAP disk. The disk was removed at 10 minutes and rinsed with HPDI water. […] 1.3 mg of potassium ferrate(VI) added and mixed into the solution. […] 1.4 mg of potassium ferrate(VI) was added to the disk surface and mixed gently. […] The reaction was allowed to continue for 5 minutes. […] The disk was rinsed several times with HPDI water. 100 μL of pH 7 HEPA buffer was pipetted onto the disk surface and allowed to react for 5 minutes. […] 1 mg of potassium ferrate(VI) was added and mixed into the liquid.

stable to storage [1]: at least 98 days
Substance: potassium ferrate(VI)
L* (lightness/darkness) [2]: 107.3
a* (blue/red) [2]: −3.2
appearance of disk after treatment [2]: All stains were removed
b* (yellow/green) [2]: −5.5
reflectance of visible light at 450 nm [2]: 126.369
reflectance of visible light at 750 nm [2]: 108.805
ΔE (cran-grape juice stain) [2]: 6.82
